Measured values taken from patent US4607123A, “Water soluble 3,5-diacetamido-2,4,6-triiodobenzoic acid derivatives” (Dr. Franz Kohler Chemie GmbH, priority 1984, dated 1986).
One block for each compound: values may come before it.

Experiments:
water solubility = format: physicochemical; conditions: for solubility (in words): in water; for solubility: water
From the text: The configuration of the α-amino acid moiety may be arbitrary. The type of amino acid residue influences to a degree the solubility of the compound of the invention in water. For example, […]

[1] = viscosity of aqueous preparations (Table 1); format: physicochemical
From the text: The derivatives of compounds (I) of the invention which show a good solubility in water generally show viscosity values which, as can be expected, are dependent from the number and position of the hydroxy groups, as well as from the configuration of the amino acid residue. Representative compounds of the invention are shown in the Table 1, with their viscosity values.
Viscosity data in dependency from the type of amino acid and
the concentration of the preparation.

mouse = assay: LD50 in mouse, i.v. (Table 3); format: in vivo
Method: (§1) LD50 in mouse, i.v. (14 days after application) of solution
(§2) with a content of 300 mg J/ml.

[2] = LD50 in mouse, i.v. (Table 3); format: in vivo; conditions: in vivo, iv, 14 days after application, solution with 300 mg J/ml
Method: as §1, §2

[3] = heat stability of a 67,9% aq. solution at different temperatures and times (Table 2); format: physicochemical
From the text: Behaviour of a 67,9% aq. solution of (II) at different temperatures

Structure (SMILES): CC(=O)Nc1c(I)c(NC(C)=O)c(I)c(C(=O)N(C)CC(=O)N(C)C[C@H](O)[C@@H](O)[C@H](O)[C@H](O)CO)c1I [II, N,N-[(3,5-diacetamido-2,4,6-triiodobenzoyl)-sarcosine]-N-methyl glucamide]
- toxicity (in words) (mouse; in vivo): low toxicity
- LD50 at 336 h [2]: 36000 mg/kg
- Color ([3]; 30 min, 110 °C.): colorless
- Iodide ([3]; 30 min, 110 °C.): 2.63 mg J/100 ml
- pH ([3]; 30 min, 110 °C.): 7.85
- Color ([3]; 30 min, 120 °C.): colorless
- Iodide ([3]; 30 min, 120 °C.): 3.73 mg J/100 ml
- pH ([3]; 30 min, 120 °C.): 7.80
- Color ([3]; 60 min, 110 °C.): colorless
- Iodide ([3]; 60 min, 110 °C.): 3.72 mg J/100 ml
- pH ([3]; 60 min, 110 °C.): 7.75
- Color ([3]; base solution): colorless
- Iodide ([3]; base solution): 1.78 mg J/100 ml
- pH ([3]; base solution): 7.85
- solubility (in words) (water solubility): superior in respect to solubility
- solubility (water solubility; very soluble): > 1000 mg/mL
- Viscosity ([1]; 20° C., 100 mg J/ml): 2.16 cP
- Viscosity ([1]; 20° C., 150 mg J/ml): 3.50 cP
- Viscosity ([1]; 20° C., 200 mg J/ml): 5.74 cP
- Viscosity ([1]; 20° C., 250 mg J/ml): 10.84 cP
- Viscosity ([1]; 20° C., 300 mg J/ml): 18.88 cP
- Viscosity ([1]; 37° C., 100 mg J/ml): 1.48 cP
- Viscosity ([1]; 37° C., 150 mg J/ml): 2.22 cP
- Viscosity ([1]; 37° C., 200 mg J/ml): 3.32 cP
- Viscosity ([1]; 37° C., 250 mg J/ml): 6.20 cP
- Viscosity ([1]; 37° C., 300 mg J/ml): 9.22 cP

Structure (SMILES): CC(=O)Nc1c(I)c(NC(C)=O)c(I)c(C(=O)N[C@@H](C)C(=O)N(C)C[C@H](O)[C@@H](O)[C@H](O)[C@H](O)CO)c1I [III, N,N-[(3,5-diacetamido-2,4,6-triiodobenzoyl)-L-alanine]-N-methyl glucamide]
- solubility (water solubility; soluble): ≤ 500 mg/mL

Structure (SMILES): CC(=O)Nc1c(I)c(NC(C)=O)c(I)c(C(=O)NCCC(=O)N(C)C[C@H](O)[C@@H](O)[C@H](O)[C@H](O)CO)c1I [IV, N,N-[(3,5-diacetamido-2,4,6-triiodobenzoyl)-β-alanine]-N-methyl glucamide]
- solubility (water solubility; moderately soluble): ≤ 200 mg/mL

Structure (SMILES): CC(=O)Nc1c(I)c(NC(C)=O)c(I)c(C(=O)O)c1I [lysine-diatrizoate, reference compound]
- LD50 (mouse; i.v., 14 days after application, solution with 300 mg J/ml, 20160 min): 14000 to 18000 mg/kg

Structure (SMILES): CC(=O)Nc1c(I)c(NC(C)=O)c(I)c(C(=O)O)c1I [sodium-meglumine-diatrizoate, reference compound]
- LD50 at 336 h [2]: 12000 to 14000 mg/kg

Further lines, results first:

- solubility (in words) (water solubility): superior in respect to solubility
- solubility (water solubility; very soluble): > 1000 mg/mL
- Viscosity ([1]; 20° C., 200 mg J/ml): 10.65 cP
- Viscosity ([1]; 20° C., 250 mg J/ml): 25.38 cP
- Viscosity ([1]; 37° C., 200 mg J/ml): 5.84 cP
- Viscosity ([1]; 37° C., 250 mg J/ml): 12.23 cP
Structure (SMILES): CC(=O)Nc1c(I)c(NC(C)=O)c(I)c(C(=O)NC(CC(=O)N(C)C[C@H](O)[C@@H](O)[C@H](O)[C@H](O)CO)C(=O)N(C)C[C@H](O)[C@@H](O)[C@H](O)[C@H](O)CO)c1I (mixture of isomers) [X, N,N-[(3,5-diacetamido-2,4,6-triiodobenzoyl)-DL-aspartic acid]-bis-N-methyl glucamide]

- solubility (in words) (water solubility): superior in respect to solubility
- solubility (water solubility; very soluble): > 1000 mg/mL
- Viscosity ([1]; 20° C., 100 mg J/ml): 2.90 cP
- Viscosity ([1]; 20° C., 150 mg J/ml): 5.15 cP
- Viscosity ([1]; 20° C., 200 mg J/ml): 11.14 cP
- Viscosity ([1]; 20° C., 250 mg J/ml): 33.58 cP
- Viscosity ([1]; 20° C., 300 mg J/ml): 88.85 cP
- Viscosity ([1]; 37° C., 100 mg J/ml): 1.84 cP
- Viscosity ([1]; 37° C., 150 mg J/ml): 3.04 cP
- Viscosity ([1]; 37° C., 200 mg J/ml): 6.06 cP
- Viscosity ([1]; 37° C., 250 mg J/ml): 15.96 cP
- Viscosity ([1]; 37° C., 300 mg J/ml): 35.41 cP
Structure (SMILES): CC(=O)Nc1c(I)c(NC(C)=O)c(I)c(C(=O)N[C@@H](CC(=O)N(C)C[C@H](O)[C@@H](O)[C@H](O)[C@H](O)CO)C(=O)N(C)C[C@H](O)[C@@H](O)[C@H](O)[C@H](O)CO)c1I [IX, N,N-[(3,5-diacetamido-2,4,6-triiodobenzoyl)-L-aspartic acid]-bis-N-methyl glucamide]

- solubility (water solubility; moderately soluble): ≤ 200 mg/mL
Structure (SMILES): CC(=O)Nc1c(I)c(NC(C)=O)c(I)c(C(=O)NCCCC(=O)N(C)C[C@H](O)[C@@H](O)[C@H](O)[C@H](O)CO)c1I [V, N,N-[(3,5-diacetamido-2,4,6-triiodobenzoyl)-γ-aminobutyric acid]-N-methyl glucamide]

- solubility (water solubility; soluble): ≤ 500 mg/mL
- Viscosity ([1]; 20° C., 100 mg J/ml): 2.13 cP
- Viscosity ([1]; 20° C., 150 mg J/ml): 3.11 cP
- Viscosity ([1]; 20° C., 200 mg J/ml): 5.15 cP
- Viscosity ([1]; 20° C., 250 mg J/ml): 9.43 cP
- Viscosity ([1]; 20° C., 300 mg J/ml): 20.05 cP
- Viscosity ([1]; 37° C., 100 mg J/ml): 1.84 cP
- Viscosity ([1]; 37° C., 150 mg J/ml): 1.95 cP
- Viscosity ([1]; 37° C., 200 mg J/ml): 3.04 cP
- Viscosity ([1]; 37° C., 250 mg J/ml): 5.16 cP
- Viscosity ([1]; 37° C., 300 mg J/ml): 9.71 cP
Structure (SMILES): CC(=O)Nc1c(I)c(NC(C)=O)c(I)c(C(=O)N[C@@H](CO)C(=O)N(C)C[C@H](O)[C@@H](O)[C@H](O)[C@H](O)CO)c1I [VIII, N,N-[(3,5-diacetamido-2,4,6-triiodobenzoyl)-L-serine]-N-methyl glucamide]

- solubility (in words) (water solubility): superior in respect to solubility
- solubility (water solubility; moderately soluble): ≤ 200 mg/mL
- solubility (water solubility; very soluble): > 1000 mg/mL
Structure (SMILES): CC(=O)Nc1c(I)c(NC(C)=O)c(I)c(C(=O)N[C@@H](CCC(=O)N(C)C[C@H](O)[C@@H](O)[C@H](O)[C@H](O)CO)C(=O)N(C)C[C@H](O)[C@@H](O)[C@H](O)[C@H](O)CO)c1I [XI, N,N-[(3,5-diacetamido-2,4,6-triiodobenzoyl)-L-glutamic acid]-bis-N-methyl glucamide]

- solubility (water solubility; moderately soluble): ≤ 200 mg/mL
Structure (SMILES): CC(=O)Nc1c(I)c(NC(C)=O)c(I)c(C(=O)NCCCC[C@H](NC(=O)C(C)O)C(=O)N(C)C[C@H](O)[C@@H](O)[C@H](O)[C@H](O)CO)c1I (stereo partly drawn) [XII, N,N-[α-lactyl-ε-(3,5-diacetamido-2,4,6-triiodobenzoyl)-L-lysine]-N-methyl glucamide]
